According to paper PMC7921374, “In vitro antifungal activity of pelgipeptins against human pathogenic fungi and Candida albicans biofilms” (AIMS Microbiology, 2021):
Values after ≈ are worked out from the molar mass of the structure shown. Where a SMILES comes first, the peptide text is derived from it. Bridges are numbered along the chain shown (N, C = ends). [ ]: non-standard residue; d: D form. The star is where a group is joined. X1 = CC[C@H](C)CCCCC(=O)*; Dab = NCC[C@H](N)C(=O)O

Legend:
Format in all cases: cell-based
[1] = tested on: Candida albicans SC 5314 biofilms; experiment: Inhibition of initial biofilm formation (XTT); settings: antimicrobial added at same time as yeast inoculum (2 × 10^6 cells/mL), XTT reduction, A490, 80% decrease vs control biofilm, triplicate, at least twice
Description: (§1) The effects of the pelgipeptins on C. albicans biofilms were analyzed according to the protocol described by Pierce et al.. Briefly, 2 × 10^6 cells/mL of C. albicans SC 5314 were inoculated on 96-well polystyrene microplates. The inhibition of biofilm formation was also evaluated by adding antimicrobials (lipopeptides, fluconazole, or amphotericin B) at the same time as the yeast inoculum. Furthermore, the inhibition of early-phase biofilms was assessed after 4 hours of yeast growth by removing the planktonic cells and adding the antimicrobials (lipopeptides or amphotericin B). For the investigation of the effects of peptides on mature biofilms, the Candida cells were allowed to grow for 24 h when planktonic cells were removed, and the antimicrobials were added to the culture and incubated for another 24 h at 37 °C.
(§2) The biofilm viability was analyzed by the metabolic assay on the basis of the reduction of 2,3-bis-(2-methoxy-4-nitro-5-sulfophenyl)-2H-tetrazolium-5-carboxanilide (XTT) and absorbance reading at 490 nm. […] The sessile minimal inhibitory concentrations (SMICs) were also determined at 80% (SMIC80) and 50% (SIMIC50) decrease in absorbance at 490 nm in comparison with the control biofilms growing in the absence of the drug, as previously described.

[2] = tested on: Candida albicans SC 5314 biofilms; experiment: Inhibition of early-phase biofilm (XTT); settings: antimicrobial added after 4 hours of yeast growth, planktonic cells removed, A490, 80% decrease, triplicate, at least twice
Description: as §1, §2

[3] = tested on: Candida albicans SC 5314 biofilms; experiment: Inhibition of mature biofilms (XTT); settings: biofilm grown 24 h, planktonic cells removed, antimicrobial for another 24 h at 37 °C, triplicate, at least twice
Description: as §1, §2

[4] = tested on: Candida albicans SC5314; experiment: microbe, parasite or virus in culture; settings: broth microdilution CLSI M27-A4 modified, RPMI 1640 pH 7.0, 2 × 10^3 cells/mL, 37 °C, complete inhibition of visible growth, triplicates, at least thrice
Description: (§3) The isolated pelgipeptin isoforms were tested against the reference clinical strains of Candida albicans SC 5314 (ATCC MYA-2876), Candida glabrata ATCC 90030, Cryptococcus neoformans H99 (ATCC 208821), and Paracoccidioides brasiliensis PB18, a Brazilian clinical isolate. All the isolates were obtained from the mycology collection of the University of Brasilia (Department of Cell Biology). Before each experiment, both Candida spp. strains were grown in Sabouraud's dextrose broth (Himedia) overnight at 30 °C/200 rpm. In addition, the C. neoformans cells were grown in the same conditions for 24 h. P. brasiliensis strains were also grown in GPY medium (2% glucose w/v, 1% peptone w/v, 0.5% yeast extract w/v, and 2% agar w/v), at 37 °C, for 5 days. The fungal cells were collected by centrifugation, washed thrice in phosphate buffered saline (PBS) (NaCl, 137 mM; KCl, 2.7 mM; Na2HPO4, 10 mM; KH2PO4, 2 mM), and inoculated in RPMI 1640 medium (Thermo-Fisher Scientific) supplemented with L-glutamine and buffered to pH 7.0 with 165 mM of 3-(N-morpholino) propanesulfonic acid.
(§4) The in vitro antifungal assays were performed according to the broth microdilution susceptibility test from the Clinical and Laboratory Standards Institute M27-A4 guidelines with modifications. Briefly, the twofold serial dilutions of each pelgipeptin were prepared in 96-well polystyrene microplates to a final volume of 50 µL. Fluconazole, an antifungal employed in the treatment of mycosis caused by Candida spp, Cryptococcus spp, and Paracoccidioides spp, was used as a control (Sigma-Aldrich). We also utilized polymyxin B (Sigma-Aldrich), another bacterial lipopeptide, in our assays due to some works that show its antifungal activity,[28]. The final concentrations of each lipopeptide and control ranged from 1 to 128 µg/mL, and the negative controls without peptide were used to assess fungal growth. Subsequently, 50 µL of the inoculum adjusted on RPMI-1640 medium was added to each well to a final concentration of 2 × 10^3 cells/mL for Candida spp. and 10^4 cells/mL for C. neoformans or P. brasiliensis strains. The microplates were incubated at 37 °C for 24, 48, or 72 h. In addition, the strains of C. neoformans were incubated with shaking at 200 rpm.
(§5) The MICs of the pelgipeptins against P. brasiliensis were determined using the microplate AlamarBlue Cell Viability Assay. This assay uses a resazurin-based solution to indicate cell viability, which was evaluated by fluorometric readings in a fluorescence plate reader with excitation at 550 nm and emission at 585 nm (SpectraMax® M plate reader). The experiments were performed in triplicates at least thrice on separate dates.

[5] = tested on: Cryptococcus neoformans H99; experiment: microbe, parasite or virus in culture; settings: broth microdilution CLSI M27-A4 modified, RPMI 1640 pH 7.0, 10^4 cells/mL, 37 °C, shaking 200 rpm, lowest concentration completely inhibiting visible growth, triplicates, at least thrice
Description: as §3, §4, §5

[6] = tested on: Paracoccidioides brasiliensis Pb18; experiment: microbe, parasite or virus in culture
Description: as §3, §4, §5

[7] = tested on: Candida glabrata ATCC 90030; experiment: microbe, parasite or virus in culture; settings: broth microdilution CLSI M27-A4 modified, RPMI 1640 pH 7.0, 2 × 10^3 cells/mL, 37 °C, complete inhibition of visible growth, triplicates, at least thrice
Description: as §3, §4, §5

In the case of `C[C@@H]1[C@H](O)[C@@H](C)/C=C/C=C/C=C/C=C/C=C/C=C/C=C/[C@H](O[C@@H]2O[C@H](C)[C@@H](O)[C@H](N)[C@@H]2O)C[C@@H]2O[C@](O)(C[C@@H](O)C[C@@H](O)[C@H](O)CC[C@@H](O)C[C@@H](O)CC(=O)O[C@H]1C)C[C@H](O)[C@H]2C(=O)O` [Amphotericin B], the “Inhibition of initial biofilm formation SMIC80” value [1] is reported as less than 0.5 µg/mL, the “Inhibition of initial biofilm formation SMIC80” value ([1]; listed as amphotericin B) is reported as “lower than 0.5 µg/mL” and the “Inhibition of early-phase biofilm SMIC80” value [2] is reported as less than 0.5 µg/mL. The “Inhibition of early-phase biofilm SMIC80” value ([2]; listed as amphotericin B) was “lower than 0.5 µg/mL”, the “Inhibition of mature biofilms SMIC50” value ([3]; A490, 50% decrease) was 0.5 µg/mL and the “Inhibition of mature biofilms SMIC80” value ([3]; A490, 80% decrease) was 4 µg/mL.

For `OC(Cn1cncn1)(Cn1cncn1)c1ccc(F)cc1F` [Fluconazole], the MIC ([4]; Candida albicans, SC5314) was 16 µg/mL (≈ 52.2 µM), the MIC ([5]; Cryptococcus neoformans, H99) was 2 µg/mL (≈ 6.53 µM) and the MIC ([6]; Paracoccidioides brasiliensis, PB18, pH 7, read-out: MIC Paracoccidioides brasiliensis Pb18) was 2 µg/mL (≈ 6.53 µM). For the same compound, the MIC ([7]; Nakaseomyces glabratus, ATCC90030) was 32 µg/mL (≈ 104 µM).

With `CC[C@H](C)CCCCC(=O)N[C@@H](CCN)C(=O)N[C@H](C(=O)N[C@@H](CCN)C(=O)N[C@H]1CCNC(=O)[C@H]([C@@H](C)O)NC(=O)[C@H](CCN)NC(=O)[C@H](CCN)NC(=O)[C@H](CC(C)C)NC(=O)[C@@H](Cc2ccccc2)NC(=O)[C@H](CCN)NC1=O)[C@@H](C)O` [Polymyxin B, polymyxin B] (X1-[Dab]T[Dab][Dab][Dab][dF]L[Dab][Dab]T; lactam 4-C (inferred); N-terminus assumed) the “MIC Candida albicans SC5314” value [4] was 256 µg/mL (≈ 213 µM), the “MIC Cryptococcus neoformans H99” value [5] was 8 µg/mL (≈ 6.65 µM) and the “MIC Paracoccidioides brasiliensis Pb18” value ([6]; broth microdilution, RPMI 1640 pH 7.0 (MOPS), 10^4 cells/mL, 37 °C, AlamarBlue fluorescence (ex 550/em 585 nm), triplicates, at least thrice) was greater than 1024 µg/mL. The “MIC Candida glabrata 90030” value [7] was 512 µg/mL (≈ 425 µM).
